From patent US4663311A, “Derivatives of muramyl-peptides and of steroids having macrophage-activating properties” (priority 1983, dated 1987)

Columns and labels:
Mastocytoma P815 = experiment: Growth inhibition of mastocytoma P815 cocultured with treated mouse peritoneal macrophages (tritiated thymidine incorporation); type: cell-based; settings: MTP-chol in liposomes at 2 μg/ml (400 μg liposomes/ml) or 1 μg/ml (200 μg liposomes/ml) vs 50 μg of MDP
Protocol: I. The microphages used are peritoneal macrophages from eight week old female BDF 1 mice. They have been brought into the peritoneal cavity by i.p. injection 4 days earlier, of 1.5 ml of a sterile inflammatory irritant, thioglycollate medium (marketed by Institut Pasteur Production).
The peritoneal cells are obtained by peritoneal washing with 5 ml of MEM medium (see below) of mice previously killed by cervical dislocation and bled by decapitation.
After centrifugation, they are replaced in suspension in MEM (Minimal Essential Medium, Institut Pasteur Production) supplemented with 5% of inactivated fetal calf serum (gibco), and antibiotics (penicillin+streptomycine).
The macrophages are identified by microscope by their aptitude to endocyte neutral red and counted on an aliquot portion.
The suspension is then adjusted to 2.10^6 macrophages/ml and distributed in the proportion of 250 μl per cup in a Microtest II (NUNCLON) plastic box of 96 cups.
The disk is placed in an oven (HERAEUS) at 37° C. in an air atmosphere+5% water-saturated CO2. […]
The portion of filter corresponding to each cup is cut out and counted in the presence of scintillation liquid (LIPOLUMAC, LUMA) in a scintillation counter (RACKBETA, LKB). […]
The antitumoral activity of the macrophages is expressed as a percentage of growth inhibition: (%IC) [formula] […]

B16-BL6 melanoma = experiment: Cytotoxicity against B16-BL6 melanoma cocultured with treated rat alveolar macrophages (125I-deoxyuridine remaining); type: cell-based
Protocol: The macrophages used are alveolar macrophages of F344 male rats of 200 gm. The macrophages are obtained by washing the lung with 9×5 ml of PBS medium of DULBECCO without calcium or magnesium, of rats anesthesitized with 0.5 ml 5% Nembutal ip (Laboratoires Abbott S.A.) and bled by incision of an artery of the kidney. After centrifugation, they are resuspended in MEM (Minimal Essential Medium) supplemented with 5% of inactivated fetal calf serum (Gibco), glutamine, sodium pyruvate, non-essential amino acids, vitamins and antibiotics (penicillin and streptomycine).
The suspension is then adjusted to 5×10^5 macrophages/ml and redistributed in the proportion of 100 μl per cup in a TITERTEK plastic dish of 96 cups. After incubation for 4 hours, the macrophages have adhered; the non-adherent cells (less than 5%) are removed by aspiration of the medium and two washings with incubation medium. […]
After 96 hours of coculture, the dead cells are removed by 3 washings of each cup with 200 μl of PBS of DULBECCO medium. […] The radioactivity remaining in each cup is counted in a gamma counter (BECKMAN GAMMA 4000). […]
the antitumoral activity of the macrophages is expressed as a cytotoxicity percentage (%CYT): [formula] where T=^125 I-deoxyuridine remaining in the untreated macrophages+tumoral cells coculture; and […]

influenza virus A/PR 8 = experiment: Anti-viral activity in experimental influenza infection of Swiss mice; type: in vivo, mouse
Source text: The anti-viral activity has been evaluated in an experimental infection system. Swiss mice aged 10 weeks were used. The virus chosen was that of the influenza virus A/PR 8.
At day D-0, the animals received by the intra-nasal route 50 microliters of a viral dilution at 1/10^4.
An anti-viral activity of the tested compound has been found both in preventive and curative experiments (prevention). The administration of one mg of compound by the intra-nasal route one day prior to the viral dilution produced the survival of 67% of the animals.
When the compounds were used at the curative level, the best results were obtained when 0.5 mg of the compound was administered sub-cutaneously one day after the administration of the viral dilution. 71% of the animals survived.

CC(=O)N[C@@H]1[C@@H](OC(C)C(=O)N[C@@H](C)C(=O)N[C@H](CCC(=O)N[C@@H](C)C(=O)O[C@H]2CC[C@@]3(C)C(=CC[C@H]4[C@@H]5CC[C@H]([C@H](C)CCCC(C)C)[C@@]5(C)CC[C@@H]43)C2)C(N)=O)[C@H](O)[C@@H](CO)O[C@@H]1O (stereo partly drawn) [MTP-chol, N-acetyl-muramyl-L-alanyl-D-isoglutaminyl-L-alanyl-cholsteryl ester] was tested, and the “activation of macrophages compared with MDP” value (Mastocytoma P815) was “activates the macrophages significantly more than 50 μg of MDP does”, the “concentration of MTP-chol in the liposomes that significantly activates the macrophages” value (B16-BL6 melanoma; 40 μg phospholipid/ml) was over 0.0017 µg/mL and the “concentration of MTP-chol in the liposomes that significantly activates the macrophages” value (B16-BL6 melanoma; 400 μg phospholipid/ml) was “more than 0.017 μg/ml”. For the same compound, the animals survived (influenza virus A/PR 8; curative: 0.5 mg sub-cutaneously one day after the viral dilution) was 71% and the “survival of the animals” value (influenza virus A/PR 8; preventive: one mg intra-nasal one day prior to the viral dilution) was 67%.
